Source: patent publication US10202411B2, “3′-substituted methyl or alkynyl nucleosides nucleotides for the treatment of HCV” (priority 2014, dated 2019)
Like-named read-outs stand apart in the source and are kept apart here.

Experiments:
in vitro = settings: human
HCV genotype 1b replicon = assay: HCV replicon assay (Zluc luciferase reporter); format: cell-based; settings: Huh-7-derived Zluc cells, genotype 1b replicon, luciferase, 72 hours, read-out: HCV Replicon EC50
Experimental: Huh-7-derived cell line (Zluc) that harbors an HCV genotype 1b replicon and a luciferase reporter gene was grown in Dulbecco's Modified Eagle Medium (DMEM) supplemented with 10% fetal bovine serum, 2 mM GlutaMAX, 1% MEM nonessential amino acids, 100 IU/mL penicillin, 100 μg/mL streptomycin, and 0.5 mg/mL Geneticin® (G418). For dose response testing the cells were seeded in 96-well plates at 7.5×10^3 cells per well in a volume of 50 μL, and incubated at 37° C./5% CO2. Drug solutions were made up freshly in Huh-7 media as 2× stocks. Ten additional 5-fold dilutions were prepared from these stocks in DMEM without G418. At least three hours after Zluc cells were seeded, drug treatment was initiated by adding 50 μL of drug dilutions to the plates in duplicate. Final concentrations of drug ranged from 100 μM to 0.0000512 μM. Cells were then incubated at 37° C./5% CO2. Alternatively, compounds were tested at two concentrations (1 μM and 10 μM). […] After 72 hours of incubation, the inhibition of HCV replication was measured by quantification of photons emitted after mono-oxygenation of 5′-fluoroluciferin to oxyfluoroluciferin by firefly luciferase. For this, media was removed from the plates via gentle tapping. Fifty microliters of ONE-glo luciferase assay reagent was added to each well. The plates were shaken gently for 3 min at room temperature and luminescence was measured on a Victor^3 V 1420 multilabel counter (Perkin Elmer) with a 1 second read time using a 700 nm cut-off filter. The EC50 values were calculated from dose response curves from the resulting best-fit equations determined by Microsoft Excel and XLfit 4.1 software. When screening at two fixed concentrations, the results were expressed as % inhibition at 1 μM and 10 μM.

Zluc cells = assay: Cytotoxicity evaluation, CellTiter-Blue Cell Viability Assay; settings: read-out: HCV Replicon CC50; Zluc cells, CellTiter-Blue cell viability

SMILES	CC50 (in vitro) [µM]	EC50 (HCV genotype 1b replicon; Hepatitis C virus) [µM]	EC50 (HCV genotype 1b replicon) [µM]	CC50 (Zluc cells) [µM]
Nc1ncnc2c1ncn2[C@@H]1O[C@H](CO)[C@@H](CF)[C@H]1O [Compound 225]	> 50	> 10		
O=c1ccn([C@@H]2O[C@@H]3COP(=O)(O)OC[C@H]3[C@H]2O)c(=O)[nH]1 [Compound 118]	> 50	> 10		
CC(C)OC(=O)[C@H](C)NP(=O)(OCCSC(=O)C(C)(C)C)OC[C@H]1O[C@@H](n2ccc(N)nc2=O)[C@H](O)[C@@H]1CO (single isomer, unassigned) [Compound 106b (Mixture of diastereomers)]			> 10	> 50
C[C@@H](NP1(=O)OC[C@H]2[C@@H](O)[C@H](n3ccc(=O)[nH]c3=O)O[C@@H]2CO1)C(=O)OCc1ccccc1 (single isomer, unassigned) [Compound 120a (Diastereomer 2)]			> 10	> 50
CC(C)(CO)C(=O)SCCOP1(=O)OC[C@H]2[C@@H](O)[C@H](n3ccc(=O)[nH]c3=O)O[C@@H]2CO1 (single isomer, unassigned) [Compound 109 (Diastereomer 1)]	> 50	> 10		
CC(C)OC(=O)CCCOP1(=O)OC[C@H]2[C@@H](O)[C@H](n3ccc(=O)[nH]c3=O)O[C@@H]2CO1 (mixture of isomers) [Compound 112 (Mixture of diastereomers)]	> 50	> 10		
CC(C)OC(=O)[C@@H](C)NP1(=O)OC[C@H]2[C@@H](O)[C@H](n3ccc(=O)[nH]c3=O)O[C@@H]2CO1 (single isomer, unassigned) [Compound 110a (Diastereomer 1)]	> 50	> 10		
C[C@@H](NP1(=O)OC[C@H]2[C@@H](O)[C@H](n3ccc(=O)[nH]c3=O)O[C@@H]2CO1)C(=O)OCc1ccccc1 (single isomer, unassigned) [Compound 120a (Diastereomer 1)]	> 50	> 10		
CC(=O)OC[C@H]1[C@@H](OC(C)=O)[C@H](n2ccc(N)nc2=O)O[C@@H]1CO [Compound 213]	> 50	> 10		
CCOc1nc(N)nc2c1ncn2[C@@H]1O[C@H](CO)[C@@H](CO)[C@H]1O [Compound 227]	> 50	> 10		
Nc1ccn([C@@H]2O[C@H](CO)[C@@H](CF)[C@H]2O)c(=O)n1 [Compound 204]	> 50	> 10		
CC(C)OC(=O)CCCOP(=O)(O)OC[C@H]1O[C@@H](n2ccc(=O)[nH]c2=O)[C@H](O)[C@@H]1CO [Compound 115]	> 50	> 10		
CC(C)OC(=O)[C@@H](C)NP1(=O)OC[C@H]2[C@@H](O)[C@H](n3ccc(=O)[nH]c3=O)O[C@@H]2CO1 (single isomer, unassigned) [Compound 110a (Diastereomer 2)]			> 10	> 50
Nc1ccn([C@@H]2O[C@H](CO)[C@@H](CO)[C@H]2O)c(=O)n1 [Compound 206]	> 50	> 10		
O=c1ccn([C@@H]2O[C@H](CO)[C@@H](C(F)F)[C@H]2O)c(=O)[nH]1 [Compound 201]	> 50	> 10		
C[C@@H](NP(=O)(OC[C@H]1O[C@@H](n2ccc(=O)[nH]c2=O)[C@H](O)[C@@H]1CO)Oc1ccccc1)C(=O)OCc1ccccc1 (single isomer, unassigned) [Compound 123a Diastereomer 1]	> 50	> 10		
O=c1ccn([C@@H]2O[C@H](CO)[C@@H](CF)[C@H]2O)c(=O)[nH]1 [Compound 202]	> 50	> 10		
CC(C)(CO)C(=O)SCCOP1(=O)OC[C@H]2[C@@H](O)[C@H](n3ccc(=O)[nH]c3=O)O[C@@H]2CO1 (single isomer, unassigned) [Compound 109 (Diastereomer 2)]			> 10	
C[C@@H](NP(=O)(OC[C@H]1O[C@@H](n2cnc3c(=O)[nH]c(N)nc32)[C@H](O)[C@@H]1CF)Oc1ccccc1)C(=O)OC1CCCC1 (single isomer, unassigned) [Compound 124a Diastereomer 2]			> 10	> 50
CC(C)OC(=O)CCCOP1(=O)OC[C@H]2[C@@H](O)[C@H](n3ccc(=O)[nH]c3=O)O[C@@H]2CO1 (single isomer, unassigned) [Compound 112 (Diastereomer 2)]			> 10	

SMILES	CC50 (in vitro) [µM]	EC50 (HCV genotype 1b replicon; Hepatitis C virus) [µM]	EC50 (HCV genotype 1b replicon) [µM]	CC50 (Zluc cells) [µM]
Nc1nc2c(ncn2[C@@H]2O[C@H](CO)[C@@H](CO)[C@H]2O)c(=O)[nH]1 [Compound 208]			> 10	> 50
Nc1nc2c(ncn2[C@@H]2O[C@H](CO)[C@@H](CF)[C@H]2O)c(=O)[nH]1 [Compound 226]	> 50	> 10		
CC(C)(CO)C(=O)SCCOP1(=O)OC[C@H]2[C@@H](O)[C@H](n3ccc(=O)[nH]c3=O)O[C@@H]2CO1 (mixture of isomers) [Compound 109 (Mixture of diastereomers)]	> 50	> 10		
CC(C)OP1(=O)OC[C@H]2[C@@H](O)[C@H](n3ccc(=O)[nH]c3=O)O[C@@H]2CO1 (single isomer, unassigned) [Compound 108 (Diastereomer 1)]	> 50	> 10		
Nc1nc(SCCO)c2ncn([C@@H]3O[C@H](CO)[C@@H](CO)[C@H]3O)c2n1 [Compound 209]			> 10	> 50
O=c1ccn([C@@H]2O[C@@H]3COP(=O)(OCc4ccccc4)OC[C@H]3[C@H]2O)c(=O)[nH]1 (mixture of isomers) [Compound 113 (Mixture of diastereomers)]	> 50	> 10		
CCOC(=O)[C@H](CC(C)C)NP(=O)(N[C@@H](CC(C)C)C(=O)OCC)OC[C@H]1O[C@@H](n2cnc3c(OCC)nc(N)nc32)[C@H](O)[C@@H]1CF [Compound 129a]	> 50	> 10		
O=c1ccn([C@@H]2O[C@H](CO[PH](=O)OCc3ccccc3)[C@@H](CO)[C@H]2O)c(=O)[nH]1 (mixture of isomers) [Compound 114 (Mixture of diastereomers)]	> 50	> 10		
CC(C)OC(=O)C(C)NP(=O)(NC(C)C(=O)OC(C)C)OC[C@H]1O[C@@H](n2ccc(=O)[nH]c2=O)[C@H](O)[C@@H]1CO (stereo partly drawn) [Compound 116]			> 10	> 50
CC(C)(CO)C(=O)SCCO[PH](=O)OC[C@H]1O[C@@H](n2ccc(=O)[nH]c2=O)[C@H](O)[C@@H]1CO (mixture of isomers) [Compound 107 (Mixture of diastereomers)]	> 50	> 10		
C[C@@H](NP(=O)(OC[C@H]1O[C@@H](n2cnc3c(=O)[nH]c(N)nc32)[C@H](O)[C@@H]1CF)Oc1ccccc1)C(=O)OC1CCCC1 (single isomer, unassigned) [Compound 124a Diastereomer 1]	> 50	> 10		
CC(C)(C)C(=O)SCCOP(=O)(OCCSC(=O)C(C)(C)C)OC[C@H]1O[C@@H](n2cnc3c(=O)[nH]c(N)nc32)[C@H](O)[C@@H]1CO [Compound 101]	> 50	> 10		
Nc1ccn([C@@H]2O[C@H](CO)[C@@H](C(F)F)[C@H]2O)c(=O)n1 [Compound 203]	> 50	> 10		
CC(O)[C@H]1[C@@H](O)[C@H](n2ccc(=O)[nH]c2=O)O[C@@H]1CO (single isomer, unassigned) [Compound 211 (Single Isomer)]	> 50	> 10		
CC(=O)OC[C@H]1[C@@H](OC(C)=O)[C@H](n2ccc(=O)[nH]c2=O)O[C@@H]1CO [Compound 212]	> 50	> 10		
O=c1ccn([C@@H]2O[C@H](CO)[C@@H](CO)[C@H]2O)c(=O)[nH]1 [Compound 205]	> 50	> 10		
O=c1ccn([C@@H]2O[C@@H]3COP(=O)(OCc4ccccc4)OC[C@H]3[C@H]2O)c(=O)[nH]1 (single isomer, unassigned) [Compound 113 (Diastereomer 1)]	> 50	> 10		
CCOC(=O)OC(C)OP(=O)(N[C@H](C(=O)OC)C(C)C)OC[C@H]1O[C@@H](n2cnc3c(OCC)nc(N)nc32)[C@H](O)[C@@H]1CF (mixture of isomers) [Compound 128a Mixture of diastereomers]	> 50	> 10		
CC(C)OC(=O)CCCOP1(=O)OC[C@H]2[C@@H](O)[C@H](n3ccc(=O)[nH]c3=O)O[C@@H]2CO1 (single isomer, unassigned) [Compound 112 (Diastereomer 1)]	> 50	> 10		
Nc1ncnc2c1ncn2[C@@H]1O[C@H](CO)[C@@H](CO)[C@H]1O [Compound 207]	> 50	> 10		
